# Measurements taken from article PMC10619133, “The catechol moiety of obafluorin is essential for antibacterial activity” (RSC Chemical Biology, 2023).
# “Also recorded” adds a separate entry of the source. Where two headings read alike, the source gives them in different places.
# Columns and labels:
# [1] = test system: S. aureus; test: Bioassay of control antibiotics with and without additional Fe3+; assay type: cell-based
# Description: (§1) The method was the same as for the antibacterial MIC assays described above, with the following modifications: for excess iron, Fe(NO3)3·9H2O stock (400 mM) was added to give a final concentration of 1.5 or 2.0 mM; for iron depletion, bipy stock (1 M) was added to give a final concentration of 150 μM. For MRSA, 1 was further diluted to 0.5 0.25 and 0.125 μg mL^−1 due to a decrease in MIC under excess iron conditions. The general effect of excess iron on the activity of alternative antibiotics was determined by performing a similar serial dilution of carbenicillin, kanamycin, streptomycin, nitrofurantoin and chloramphenicol in the presence of Fe^3+.
# [2] = test system: E. coli 25922; test: Spot-on-lawn MIC bioassay; assay type: cell-based, E. coli ATCC 25922; settings: for lowest concentration which gave an inhibition zone: - Fe3+; for MIC: Escherichia coli, 25922, spot-on-lawn
# Description: (§2) Indicator strains were grown for 16–18 h in LB (5 mL) by inoculation from a single colony. An aliquot of the resulting culture (500 μL) was then used to inoculate LB (50 mL in 250 mL Erlenmeyer flasks), followed by orbital shaking at 250 rpm until they reached an OD600 of 0.3–0.4. These cultures were then diluted 1 : 10 with molten soft nutrient agar (SNA), before pouring into appropriately sized Petri dishes to set. Serial dilutions of the test compounds (from 256 μg mL^−1 to 1 μg mL^−1 plus an additional sample at 1000 μg mL^−1) were prepared in acetonitrile (ACN), and 4 μL of each sample was applied directly onto the SNA surface. Kanamycin (50 μg mL^−1), apramycin (50 μg mL^−1) or aureobasidin A (0.2 μg mL^−1) were used as positive controls, as appropriate, and ACN or water (4 μL) were used as negative controls. […] Experiments were carried out in at least triplicate for each strain.
# as §1
# [3] = test system: E. coli NR698; test: Spot-on-lawn MIC bioassay; assay type: cell-based; settings: Escherichia coli
# Description: as §2
# [4] = test system: S. cerevisiae; test: Spot-on-lawn MIC bioassay; assay type: cell-based, S. cerevisiae NCYC 2939; settings: Saccharomyces cerevisiae
# Description: as §2
# [5] = test system: MRSA; test: Spot-on-lawn MIC bioassay; assay type: cell-based, Methicillin-resistant Staphylococcus aureus; settings: spot-on-lawn; for MIC: Staphylococcus aureus, MRSA; for antibacterial activity (in words): Fig. S13
# Description: as §2, §1
# [6] = target: PfThrRS (Pseudomonas fluorescens, UniProt C3JZN7); test: Aminoacylation assay; assay type: biochemical, P. fluorescens; settings: for IC100: read-out: concentration of full inhibition
# Description: (§3) To measure the effects of 1–4 on ThrRS canonical tRNA charging activity, an assay modified from that reported by Ruan et al.[53] was used, where active enzyme was incubated with its necessary substrates and its activity measured using ^14C labeled Thr and a liquid scintillation counter. Purified ThrRS protein (10 nM) was pre-incubated with varying concentrations of compounds 1–4 or ACN for 10 min. After pre-incubation, ThrRS samples were added to a master reaction mixture with the final component concentrations of HEPES (100 mM, pH 7.0), ATP (4 mM), MgCl2 (10 mM), L-[U-^14C]threonine (50 μM, Moravek Inc.), and tRNA^Thr (5 μM). This mixture was incubated at room temperature for 10 min, with samples taken at 1, 2.5, 5, and 10 min. At each time point, a 7 μL aliquot was spotted onto a 5% trichloroacetic acid (TCA) presoaked 3 MM Whatman paper (Cytiva) squares (repeated in triplicate). After allowing the spots to dry, the Whatman paper was washed three times with 5% TCA, and once with 95% EtOH. The Whatman paper was dried and the counts on each square of paper analyzed using a Tri-Carb 2910 TR liquid scintillation counter using Hydrofluor Liquid Scintillation Fluid (National Diagnostics). To calculate IC50 values, fractional initial velocities (velocity of inhibited reaction/velocity in the absence of inhibitor) were plotted against the log of 1 concentration and then fitted to eqn (1), using GraphPad Prism.1 [drawing 1]
# [7] = Hydrolysis of the β-lactone in HEPES buffer monitored by HPLC; assay type: physicochemical; settings: for effect of added Fe^3+ on hydrolysis (in words): Fe^3+ 1 mM, HEPES 100 mM, pH 6.0–8.0, 30 min; for hydrolysis of β-lactone (in words): pH 8.0, HEPES 100 mM, 30 min, no Fe^3+
# Description: Hydrolysis of 1–4 was analysed on an Agilent 1290 system fitted with an Agilent LC/MSD MS spectrometer. A Kinetex XB-C18, 100 × 4.6 mm, 5 μM column (Phenomenex) was used with a gradient elution: ACN/0.1% (v/v) FA (H2O) gradient from 5/95 for 0–0.5 min, 5/95 to 98/2 0.5–12 min, 98/2 for 12–13 min, gradient to 5/95 13–13.5 min and 5/95 for 13.5–15 min. The flow rate was 0.6 mL min^−1 and the injection volume of each sample 5 μL. DAD signals were analysed at 270 nm, with a bandwidth of 4 nm. MS were recorded in positive mode using an atmospheric pressure ionisation electrospray (API-ES) ion source with a capillary voltage of 3000 V. The drying gas temperature was 350 °C with a flow rate of 12 L min^−1. The scan parameters were: mass range = 200–1500; fragmentor = 70; gain EMV = 1.0; threshold = 150; step-size = 0.10. Data were analysed with Agilent ChemStation software.
# Five solutions of HEPES buffer (111 mM) were prepared at pH 6.0, 6.5, 7.0, 7.5 and 8.0 respectively. A further five solution of HEPES buffer (111 mM) with Fe(NO3)3.9H2O ([…]) were also prepared at pH 6.0, 6.5, 7.0, 7.5, 8.0 respectively. Stock solutions of 1–4 (10 mM) were prepared in DMSO. For each hydrolysis experiment, stock solution of 1–4 (10 μL) was added the HEPES buffer (90 μL) or the HEPES + Fe(NO3)3.9H2O buffer (90 μL), to give final concentrations of HEPES (100 mM), 1–4 (1 mM) and Fe^3+ (0 or 1 mM). The reaction mixtures were shaken using a bench top vortex and left to stand for 30 min, after which the samples were analysed by HPLC using the Analytical HPLC method. All stock solutions of 1–4 were tested at every pH, with and without Fe^3+ and all experiments were repeated in triplicate.
# [8] = test system: B. subtilis; test: Spot-on-lawn MIC bioassay; assay type: cell-based, B. subtilis EC 1524; settings: Bacillus subtilis
# Description: as §2
# [9] = target: T1, EcThrRS (Escherichia coli, UniProt P0A8M3); test: Aminoacylation assay; assay type: biochemical, E. coli; settings: for concentration at which complete inhibition was observed / IC50: enzyme 10 nM; for IC50: 10 min preincubation with compound; for fold less potent than 1: ratio of IC50 values
# T1 construct: His6 (N); made in house; host or cells: E. coli NiCo21(DE3)
# Description: as §3
# [10] = NR698, read-out: Minimum inhibitory concentration
# [11] = Figure S12 legend, read-out: Minimum inhibitory concentration
# [12] = standard conditions, read-out: MIC
# [13] = Figure S8 legend, read-out: Minimum inhibitory concentration
# [14] = Figure S10 legend, read-out: Minimum inhibitory concentration
# [15] = Figure S9 legend, read-out: Minimum inhibitory concentration
# PfThrRS, sequence (C3JZN7 whole entry): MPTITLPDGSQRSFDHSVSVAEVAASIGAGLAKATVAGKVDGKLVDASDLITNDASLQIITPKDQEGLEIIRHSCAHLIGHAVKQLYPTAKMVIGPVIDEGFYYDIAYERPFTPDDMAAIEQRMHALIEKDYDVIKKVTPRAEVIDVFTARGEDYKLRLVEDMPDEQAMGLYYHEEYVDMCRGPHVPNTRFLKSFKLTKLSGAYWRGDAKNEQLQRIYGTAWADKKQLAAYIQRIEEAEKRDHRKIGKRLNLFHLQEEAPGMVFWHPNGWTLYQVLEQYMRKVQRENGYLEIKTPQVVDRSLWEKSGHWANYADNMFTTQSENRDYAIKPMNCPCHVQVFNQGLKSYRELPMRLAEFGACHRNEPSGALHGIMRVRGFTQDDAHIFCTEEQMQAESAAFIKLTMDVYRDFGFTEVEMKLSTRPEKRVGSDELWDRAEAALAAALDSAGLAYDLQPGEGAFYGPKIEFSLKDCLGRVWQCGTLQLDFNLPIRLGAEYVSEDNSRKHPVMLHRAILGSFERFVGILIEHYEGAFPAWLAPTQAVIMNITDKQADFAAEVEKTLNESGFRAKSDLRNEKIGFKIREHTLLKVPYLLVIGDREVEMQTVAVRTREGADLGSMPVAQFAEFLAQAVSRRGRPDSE
# T1 sequence (P0A8M3 whole entry): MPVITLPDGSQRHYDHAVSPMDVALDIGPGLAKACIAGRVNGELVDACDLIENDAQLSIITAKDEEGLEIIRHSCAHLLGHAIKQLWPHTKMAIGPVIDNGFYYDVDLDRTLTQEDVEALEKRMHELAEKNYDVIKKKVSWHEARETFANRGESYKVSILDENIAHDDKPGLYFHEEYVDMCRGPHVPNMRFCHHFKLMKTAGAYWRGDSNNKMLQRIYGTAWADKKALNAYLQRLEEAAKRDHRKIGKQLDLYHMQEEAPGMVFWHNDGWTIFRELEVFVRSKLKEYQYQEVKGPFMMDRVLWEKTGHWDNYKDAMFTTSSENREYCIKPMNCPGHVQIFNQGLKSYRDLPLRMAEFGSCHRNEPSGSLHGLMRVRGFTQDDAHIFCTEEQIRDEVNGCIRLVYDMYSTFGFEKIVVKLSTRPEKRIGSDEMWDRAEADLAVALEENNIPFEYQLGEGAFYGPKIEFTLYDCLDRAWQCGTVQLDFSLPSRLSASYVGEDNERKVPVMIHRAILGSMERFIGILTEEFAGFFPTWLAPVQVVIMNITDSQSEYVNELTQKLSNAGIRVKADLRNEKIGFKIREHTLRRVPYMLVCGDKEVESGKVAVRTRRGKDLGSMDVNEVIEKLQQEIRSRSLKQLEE
compound,measurement,setting,value
"CN[C@@H]1[C@@H](O[C@H]2O[C@H](CO)[C@@H](N)[C@H](O)[C@H]2O)OC2C[C@@H](N)[C@@H](O[C@H]3[C@H](O)[C@@H](O)[C@H](N)C[C@@H]3N)OC2[C@@H]1O (some centres unmarked) [Apramycin, apramycin, reference compound]",lowest concentration which gave an inhibition zone,[1],50 µg/mL
same,lowest concentration which gave an inhibition zone,[2],50 µg/mL
"CC1(C)S[C@@H]2[C@H](NC(=O)C(C(=O)O)c3ccccc3)C(=O)N2[C@H]1C(=O)O (some centres unmarked) [Carbenicillin, carbenicillin, reference compound]",lowest concentration which gave an inhibition zone,[1],50 µg/mL
same,lowest concentration which gave an inhibition zone,[2],1000 µg/mL
"O=C(N[C@H](CO)[C@H](O)c1ccc([N+](=O)[O-])cc1)C(Cl)Cl [Chloramphenicol, chloramphenicol, reference compound]",lowest concentration which gave an inhibition zone,[1],1000 µg/mL
same,lowest concentration which gave an inhibition zone,[2],1000 µg/mL
"NC[C@H]1O[C@H](O[C@H]2[C@H](O)[C@@H](O[C@H]3O[C@H](CO)[C@@H](O)[C@H](N)[C@H]3O)[C@H](N)C[C@@H]2N)[C@H](O)[C@@H](O)[C@@H]1O [Kanamycin, kanamycin, reference compound]",lowest concentration which gave an inhibition zone,[1],50 µg/mL
same,lowest concentration which gave an inhibition zone,[2],50 µg/mL
"O=C1CN(/N=C/c2ccc([N+](=O)[O-])o2)C(=O)N1 [Nitrofurantoin, nitrofurantoin, reference compound]",lowest concentration which gave an inhibition zone,[1],500 µg/mL
same,lowest concentration which gave an inhibition zone,[2],500 µg/mL
"[H]/N=C(/N)N[C@H]1[C@H](O)[C@@H](O)[C@H](O[C@@H]2O[C@@H](C)[C@](O)(C=O)[C@H]2O[C@@H]2O[C@@H](CO)[C@H](O)[C@@H](O)[C@@H]2NC)[C@@H](N/C(N)=N\[H])[C@@H]1O [Streptomycin, streptomycin, reference compound]",lowest concentration which gave an inhibition zone,[1],50 µg/mL
same,lowest concentration which gave an inhibition zone,[2],50 µg/mL
"O=C(N[C@@H]1C(=O)O[C@@H]1Cc1ccc([N+](=O)[O-])cc1)c1ccccc1O [compound 2, 2-HBA-obafluorin]",MIC,[3]; NR698,1000 µg/mL
same,MIC,[3]; [10],> 1000 µg/mL
same,MIC,[4]; [11],> 1000 µg/mL
same,MIC,[4]; [12],> 1000 µg/mL
same,MIC,[5]; [13],1000 µg/mL
same,MIC,[5]; [12],> 1000 µg/mL
same,IC100,[6]; enzyme 10 nM,10 µM
same,effect of added Fe^3+ on hydrolysis (in words),[7],no effect
same,hydrolysis of β-lactone (in words),[7],mainly hydrolysed
same,MIC,[2]; [14],> 1000 µg/mL
same,MIC,[2]; [12],> 1000 µg/mL
same,MIC,[8]; [15],1000 µg/mL
same,MIC,[8]; [12],1000 µg/mL
same,concentration at which complete inhibition was observed,[9],10 000 nM
same,IC50,[9]; read-out: IC50,3700 ± 700 nM
same,fold less potent than 1,[9],approximately 100 fold
"O=C(N[C@@H]1C(=O)O[C@@H]1Cc1ccc([N+](=O)[O-])cc1)c1cccc(O)c1 [compound 3, 3-HBA-obafluorin]",MIC,[3]; NR698,> 1000 µg/mL
same,MIC,[3]; [10],> 1000 µg/mL
same,MIC,[4]; [11],> 1000 µg/mL
same,MIC,[4]; [12],> 1000 µg/mL
same,MIC,[5]; [13],1000 µg/mL
same,MIC,[5]; [12],1000 µg/mL
same,IC100,[6]; enzyme 10 nM,5 µM
same,effect of added Fe^3+ on hydrolysis (in words),[7],no effect
same,hydrolysis of β-lactone (in words),[7],mainly hydrolysed
same,MIC,[2]; [14],> 1000 µg/mL
same,MIC,[2]; [12],> 1000 µg/mL
same,MIC,[8]; [15],1000 µg/mL
same,MIC,[8]; [12],1000 µg/mL
same,concentration at which complete inhibition was observed,[9],5000 nM
same,IC50,[9]; read-out: IC50,930 ± 80 nM
same,fold less potent than 1,[9],~30 fold
"O=C(N[C@@H]1C(=O)O[C@@H]1Cc1ccc([N+](=O)[O-])cc1)c1ccccc1 [compound 4, BA-obafluorin]",MIC,[3]; NR698,> 1000 µg/mL
same,MIC,[3]; [10],> 1000 µg/mL
same,MIC,[4]; [11],> 1000 µg/mL
same,MIC,[4]; [12],> 1000 µg/mL
same,MIC,[5]; [13],> 1000 µg/mL
same,MIC,[5]; [12],1000 µg/mL
same,IC50,"[6]; enzyme 10 nM, 10 min preincubation with compound",not inhibited; also recorded: No inhibition
same,inhibition of aminoacylation (in words),[6]; up to 25000 nM,no significant inhibition
same,hydrolysis of β-lactone (in words),[7],no hydrolysis; also recorded: stable to hydrolysis
same,MIC,[2]; [14],> 1000 µg/mL
same,MIC,[2]; [12],> 1000 µg/mL
same,MIC,[8]; [15],> 1000 µg/mL
same,MIC,[8]; [12],> 1000 µg/mL
same,IC50,[9],No inhibition
same,inhibition of aminoacylation (in words),[9]; up to the highest concentration tested (0–25 μM),no significant inhibition
"O=C(N[C@H](C(=O)O)[C@H](O)Cc1ccc([N+](=O)[O-])cc1)c1cccc(O)c1O [compound 5, β-lactone hydrolysed obafluorin]",antibacterial activity (in words),[5],inactive
"COC(=O)[C@@H](NC(=O)c1cccc(O)c1O)[C@H](O)Cc1ccc([N+](=O)[O-])cc1 [compound 6, β-lactone methanolysed obafluorin]",antibacterial activity (in words),[5],inactive
"O=C(N[C@H](C(=O)O)[C@H](O)Cc1ccc([N+](=O)[O-])cc1)c1ccccc1 [compound 7, β-lactone hydrolysed BA-obafluorin]",antibacterial activity (in words),[5],inactive
